In test [1] the test system is HCT116. Kind of test: Anti-cancer screen (MTT), HCT116. In kind it is cell-based. To be noted: Homo sapiens, HCT-116, 48 hours with compound, tested at 0.01-100 µM. The gist of the method:
(§1)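 Growth inhibition is measured by MTT reduction after 48 h treatment of cells grown in DMEM with 10% fetal bovine serum. Percent growth uses T0 viability, measured just before dosing, so that net cell kill yields negative values and an LC50.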

Test [2] relates to NCIH460, HCT116, MDAMB-231/U 251. Kind of test: Anti-cancer screen, mean GI50 over the cell lines. It is filed as cell-based. To be noted: in µM. The gist of the method:
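HCT116, NCIH460 and U251 cells (5000/well) were seeded for 24 h, then exposed in triplicate to 0.01, 0.1, 1, 10 and 100 µM final compound for 48 h. Viability was read by MTT (3 h, absorbance 570 nm), and percent growth was calculated against untreated controls and a T0 plate read at compound addition.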

For test [3], the system named is HDAC. Put plainly: HDAC inhibition. In kind it is biochemical. To be noted: for HDAC Inhibition 1 μM: compound at 1 μM; for HDAC Inhibition 10 μM: compound at 10 μM.
Test [4] relates to NCIH460. Put plainly: Anti-cancer screen (MTT), NCIH460. To be noted: Homo sapiens, NCI-H460, 48 hours with compound, tested at 0.01-100 µM. It is filed as cell-based. The gist of the method:
as §1

For test [5], the system named is MDAMB-231/U 251. Put plainly: Anti-cancer screen (MTT), MDAMB-231/U 251. In kind it is cell-based. To be noted: for CC50: 48 h, read-out: MDAMB-231/U 251 LC50; for GI50 / IC (TGI): 48 hours with compound, MTT, tested at 0.01-100 µM. In a few lines: as §1

Where only a bound is given, the exact number is not on record here.

As to `CCOC(=O)Cc1csc(NC(=O)c2ccc(CNC(=O)OCc3cccs3)cc2)n1` [Example 54, Ethyl{2-[(4-{[(2-thienylmethyloycarbonyl)amino]methyl}benzoyl)amino]-1,3-thiazol-4-yl}acetate], in test [1], the GI50 (commonly the concentration that inhibits growth by half) was 3 µM, the IC (TGI) was found to be 9.3 µM and the LC50 (concentration giving 50% net cell kill relative to T0) stood at 97 µM. Moreover, the “Mean GI50” value in test [2] worked out at 1.1. In addition, in test [3], the “HDAC Inhibition 1 μM” value is 0.6 and the “HDAC Inhibition 10 μM” value worked out at 8.1. In test [4], the GI50 amounted to 0.05 µM, the IC (TGI) was 0.8 µM and the LC50 (usually the concentration that kills 50% of the test population) worked out at 91 µM. In test [5], the CC50 was more than 100 µM, the GI50 worked out at 0.2 µM and the IC (TGI) was determined as 62 µM.

`Nc1cccc(NC(=O)c2ccc(CNC(=O)OCc3cccs3)cc2)c1` [Example 55, 2-Thienylmethyl(4-{[(3-aminophenyl)amino]carbonyl}benzyl)carbamate]: in test [1], the GI50 is 18 µM, the IC (TGI) was more than 100 µM and the LC50 (concentration giving 50% net cell kill relative to T0) was more than 100 µM. In addition, the “Mean GI50” value in test [2] is listed as 7. In addition, in test [3], the “HDAC Inhibition 1 μM” value is recorded as 7.41 and the “HDAC Inhibition 10 μM” value was found to be 26. Moreover, in test [4], the GI50 is 4 µM, the IC (TGI) stood at 40 µM and the median lethal concentration (LC50) is more than 100 µM. Besides, in test [5], the CC50 was 45 µM, the GI50 came to 0.07 µM and the IC (TGI) came to 0.6 µM.

For the compound `O=C(NCc1ccc(C(=O)N2CCN(Cc3ccc4c(c3)OCO4)CC2)cc1)OCc1nccs1` [Example 57, 1,3-Thiazol-2-ylmethyl(4-{[4-(1,3-benzodioxol-5-ylmethyl)piperazin-1-yl]carbonyl}benzyl)carbamate], in test [1], the GI50 turned out to be 7 µM, the IC (TGI) was more than 100 µM and the LC50 (concentration giving 50% net cell kill relative to T0) is more than 100 µM. For the same compound, the “Mean GI50” value in test [2] was found to be 2.6. Also, in test [3], the “HDAC Inhibition 1 μM” value is on record as −1.94 and the “HDAC Inhibition 10 μM” value is reported as −1. Moreover, in test [4], the GI50 was found to be 0.4 µM, the IC (TGI) came to 0.9 µM and the 50% lethal concentration (LC50) was more than 100 µM. In addition, in test [5], the CC50 is more than 100 µM, the GI50 was determined as 0.4 µM and the IC (TGI) is 0.9 µM.

`O=C(NCc1ccc(C(=O)Nc2nnc(C(F)(F)F)s2)cc1)OCc1nc2ccccc2s1` [Example 58, 1,3-Benzothiazol-2-ylmethyl[4-({[5-(trifluoromethyl)-1,3,4-thiadiazol-2-yl]amino}carbonyl)benzyl]carbamate]: in test [1], the GI50 amounted to 20 µM, the IC (TGI) was more than 100 µM and the LC50 (concentration giving 50% net cell kill relative to T0) is more than 100 µM. Besides, the “Mean GI50” value in test [2] is given as 7.3. Further, in test [3], the “HDAC Inhibition 1 μM” value turned out to be 0.4 and the “HDAC Inhibition 10 μM” value is on record as −11.54. In test [4], the concentration for 50% growth inhibition (GI50) was 2 µM, the IC (TGI) is 7 µM and the LC50 was more than 100 µM. Also, in test [5], the CC50 came out at 83 µM, the GI50 amounted to 0.04 µM and the IC (TGI) is 0.8 µM.

Consider `O=C(NCc1ccc(C(=O)Nc2nnc(C(F)(F)F)s2)cc1)OCc1cccs1` [Example 59, 2-Thienylmethyl[4-({[5-(trifluoromethyl)-1,3,4-thiadiazol-2-yl]amino}carbonyl)benzyl]carbamate], for which, in test [1], the GI50 is more than 100 µM, the IC (TGI) was more than 100 µM and the LC50 (concentration giving 50% net cell kill relative to T0) is more than 100 µM. Besides, the “Mean GI50” value in test [2] is on record as 63.5. Further, in test [3], the “HDAC Inhibition 1 μM” value amounted to 14.41. Besides, in test [4], the concentration for 50% growth inhibition (GI50) worked out at 53 µM, the IC (TGI) was 95 µM and the LC50 is more than 100 µM. Besides, in test [5], the CC50 is more than 100 µM, the GI50 worked out at 74 µM and the IC (TGI) was more than 100 µM.

Turning to `O=C(NCc1ccc(C(=O)N2CCC(N3CCCCC3)CC2)cc1)OCC1COc2ccccc2O1` (stereo not drawn) [Example 60, 2,3-Dihydro-1,4-benzodioxin-2-ylmethyl[{4-(piperidinopiperidin-1-yl)carbonyl}benzyl]carbamate], in test [1], the GI50 came out at 65 µM, the IC (TGI) is more than 100 µM and the LC50 (concentration giving 50% net cell kill relative to T0) is more than 100 µM. For the same compound, the “Mean GI50” value in test [2] was 36. Moreover, the “HDAC Inhibition 1 μM” value in test [3] is on record as 1.4. Further, in test [4], the GI50 worked out at 7 µM, the IC (TGI) was found to be 83 µM and the LC50 was more than 100 µM. Also, in test [5], the CC50 was more than 100 µM, the GI50 was more than 100 µM and the IC (TGI) is more than 100 µM.

`O=C(NCc1ccc(C(=O)Nc2nnc(C3CC3)s2)cc1)OCc1c(F)cc(F)cc1F` [Example 63, 2,4,6-Trifluorobenzyl(4-{[(5-cyclopropyl-1,3,4-thiadiazol-2-yl)amino]carbonyl}benzyl)carbamate]: in test [1], the GI50 was 16 µM, the IC (TGI) was more than 100 µM and the LC50 (concentration giving 50% net cell kill relative to T0) was more than 100 µM. In test [2], the “Mean GI50” value was 5.52. Moreover, the “HDAC Inhibition 10 μM” value in test [3] was found to be 0.17. Moreover, in test [4], the GI50 was 0.05 µM, the IC (TGI) stood at 6 µM and the LC50 was more than 100 µM. For the same compound, in test [5], the CC50 is more than 100 µM, the GI50 was 0.5 µM and the IC (TGI) was 5 µM.

Turning to `O=C(NCc1ccc(C(=O)Nc2nnc(C(F)(F)F)s2)cc1)OCc1nccs1` [Example 64, 1,3-Thiazol-2-ylmethyl[4-({[5-(trifluoromethyl)-1,3,4-thiadiazol-2-yl]amino}carbonyl)benzyl]carbamate], in test [1], the GI50 is more than 100 µM, the IC (TGI) is more than 100 µM and the LC50 (concentration giving 50% net cell kill relative to T0) was more than 100 µM. In test [2], the “Mean GI50” value is reported as more than 100. In test [3], the “HDAC Inhibition 1 μM” value is reported as 4.95 and the “HDAC Inhibition 10 μM” value was found to be 7.43. Besides, in test [4], the GI50 was more than 100 µM, the IC (TGI) was more than 100 µM and the LC50 was more than 100 µM. In test [5], the CC50 was more than 100 µM, the GI50 was more than 100 µM and the IC (TGI) is more than 100 µM.

In the case of `O=C(NCc1ccc(C(=O)Nc2nnc(C3CC3)s2)cc1)OCc1nccs1` [Example 65, 1,3-Thiazol-2-ylmethyl(4-{[(5-cyclopropyl-1,3,4-thiadiazol-2-yl)amino]carbonyl}benzyl)carbamate], in test [1], the GI50 amounted to 36 µM, the IC (TGI) was more than 100 µM and the LC50 (concentration giving 50% net cell kill relative to T0) was more than 100 µM. In test [2], the “Mean GI50” value is reported as 17.67. Moreover, in test [3], the “HDAC Inhibition 1 μM” value came out at 11.65 and the “HDAC Inhibition 10 μM” value came to 8.84. Moreover, in test [4], the GI50 came to 12 µM, the IC (TGI) turned out to be 85 µM and the LC50 was more than 100 µM. In test [5], the CC50 is more than 100 µM, the concentration for 50% growth inhibition (GI50) was 5 µM and the IC (TGI) worked out at 45 µM.

As for `O=C(NCc1ccc(C(=O)N2CCN(Cc3ccc4c(c3)OCO4)CC2)cc1)OCc1nc2ccccc2s1` [Example 66, 1,3-Benzothiazol-2-ylmethyl(4-{[4-(1,3-benzodioxol-5-ylmethyl)piperazin-1-yl]carbonyl}benzyl)carbamate], in test [1], the GI50 stood at 4.8 µM, the IC (TGI) is more than 100 µM and the LC50 (concentration giving 50% net cell kill relative to T0) was more than 100 µM. Moreover, in test [2], the “Mean GI50” value was determined as 3.93. In test [3], the “HDAC Inhibition 1 μM” value is 8.57 and the “HDAC Inhibition 10 μM” value stood at 12.98. In test [4], the GI50 is 1 µM, the IC (TGI) was more than 100 µM and the LC50 is more than 100 µM. Further, in test [5], the CC50 was more than 100 µM, the GI50 amounted to 6 µM and the IC (TGI) is more than 100 µM.

In the case of `O=C(NCc1ccc(C(=O)Nc2nnc(C3CC3)s2)cc1)OCc1nc2ccccc2s1` [Example 67, 1,3-Benzothiazol-2-ylmethyl(4-{[(5-cyclopropyl-1,3,4-thiadiazol-2-yl)amino]carbonyl}benzyl)carbamate], in test [1], the concentration for 50% growth inhibition (GI50) was found to be 1.8 µM, the IC (TGI) was determined as 67 µM and the LC50 (concentration giving 50% net cell kill relative to T0) is more than 100 µM. Also, the “Mean GI50” value in test [2] stood at 2.93. In test [3], the “HDAC Inhibition 1 μM” value came to 12.17 and the “HDAC Inhibition 10 μM” value was 11.64. In test [4], the GI50 stood at 3.5 µM, the IC (TGI) turned out to be 9.5 µM and the LC50 was more than 100 µM. For the same compound, in test [5], the CC50 was more than 100 µM, the GI50 came to 3.5 µM and the IC (TGI) was 9 µM.

With `O=C(NCc1ccc(C(=O)N2CCN(c3ncccn3)CC2)cc1)OCc1nccs1` [Example 68, 1,3-thiazol-2-ylmethyl{4-[(4-pyrimidin-2-ylpiperazin-1-yl)carbonyl]benzyl}carbamate], in test [1], the GI50 is 9 µM, the IC (TGI) is more than 100 µM and the LC50 (concentration giving 50% net cell kill relative to T0) is more than 100 µM. Moreover, in test [2], the “Mean GI50” value is 14.1. In test [3], the “HDAC Inhibition 1 μM” value came out at 11.14 and the “HDAC Inhibition 10 μM” value came to 5.80. Also, in test [4], the GI50 was determined as 33 µM, the IC (TGI) was more than 100 µM and the LC50 was more than 100 µM. Besides, in test [5], the CC50 was more than 100 µM, the GI50 is 0.2 µM and the IC (TGI) came out at 21 µM.
